Measured values taken from PubChem BioAssay (NCI).
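The compound was tested at five concentrations on cells cultured in 96-well plates, with a 48-hour exposure period. Abbreviation: GI50, concentration required for 50% inhibition of growth. The concentration for full growth arrest is given as TGI.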

What was measured:
Assay in all cases: NCI anticancer screen, dose series, 48 h
ACHN renal = system: ACHN renal
SK-OV-3 ovarian = system: SK-OV-3 ovarian
CAKI-1 renal = system: CAKI-1 renal
HOP-92 NSCLC = system: HOP-92 NSCLC
PC-3 prostate = system: PC-3 prostate
SNB-19 CNS = system: SNB-19 CNS
NCI-H460 lung = system: NCI-H460 lung
SF-268 CNS = system: SF-268 CNS
SN12C renal = system: SN12C renal
SW-620 colon = system: SW-620 colon
A549 NSCLC = system: A549 NSCLC
OVCAR-5 ovarian = system: OVCAR-5 ovarian
SNB-75 CNS = system: SNB-75 CNS
OVCAR-3 ovarian = system: OVCAR-3 ovarian
MOLT-4 leukemia = system: MOLT-4 leukemia
HS 578T breast = system: HS 578T breast
OVCAR-8 ovarian = system: OVCAR-8 ovarian
HL-60(TB) leukemia = system: HL-60(TB) leukemia
TK-10 renal = system: TK-10 renal
SF-295 CNS = system: SF-295 CNS
MALME-3M melanoma = system: MALME-3M melanoma
COLO 205 colon = system: COLO 205 colon
SK-MEL-28 melanoma = system: SK-MEL-28 melanoma
KM12 colon = system: KM12 colon
U251 CNS = system: U251 CNS
HCC-2998 colon = system: HCC-2998 colon
RPMI-8226 leukemia = system: RPMI-8226 leukemia
RXF 393 renal = system: RXF 393 renal
IGROV1 ovarian = system: IGROV1 ovarian
UACC-62 melanoma = system: UACC-62 melanoma
BT-549 breast = system: BT-549 breast
DU-145 prostate = system: DU-145 prostate
M14 melanoma = system: M14 melanoma
NCI-H23 lung = system: NCI-H23 lung
EKVX NSCLC = system: EKVX NSCLC
MDA-MB-231 breast = system: MDA-MB-231 breast
NCI-H522 lung = system: NCI-H522 lung
SR leukemia = system: SR leukemia
UACC-257 melanoma = system: UACC-257 melanoma
LOX IMVI melanoma = system: LOX IMVI melanoma
HOP-62 NSCLC = system: HOP-62 NSCLC
A498 renal = system: A498 renal
NCI-H226 lung = system: NCI-H226 lung
CCRF-CEM leukemia = system: CCRF-CEM leukemia
HCT-15 colon = system: HCT-15 colon
UO-31 renal = system: UO-31 renal
MCF7 breast = system: MCF7 breast
HT29 colon = system: HT29 colon
OVCAR-4 ovarian = system: OVCAR-4 ovarian
786-0 renal = system: 786-0 renal
SF-539 CNS = system: SF-539 CNS
SK-MEL-2 melanoma = system: SK-MEL-2 melanoma
NCI/ADR-RES ovarian = system: NCI/ADR-RES ovarian
T-47D breast = system: T-47D breast
HCT-116 colon = system: HCT-116 colon
MDA-MB-435 = system: MDA-MB-435
SK-MEL-5 melanoma = system: SK-MEL-5 melanoma

O=C1C(c2ccccc2)=C(N2CCc3ccccc32)OC1(Cl)Cl
GI50 (ACHN renal): 2.27 µM | TGI (ACHN renal): 7.14 µM | GI50 (SK-OV-3 ovarian): 13.4 µM | TGI (SK-OV-3 ovarian): 30.9 µM | GI50 (CAKI-1 renal): 1.47 µM | TGI (CAKI-1 renal): 3.47 µM | GI50 (HOP-92 NSCLC): 1.81 µM | TGI (HOP-92 NSCLC): 5.21 µM | GI50 (PC-3 prostate): 4.03 µM | TGI (PC-3 prostate): 54.6 µM | GI50 (SNB-19 CNS): 5.27 µM | TGI (SNB-19 CNS): 22.9 µM | GI50 (NCI-H460 lung): 3.96 µM | TGI (NCI-H460 lung): 20.2 µM | GI50 (SF-268 CNS): 3.92 µM | TGI (SF-268 CNS): 29.4 µM | GI50 (SN12C renal): 2.7 µM | TGI (SN12C renal): 8.58 µM | GI50 (SW-620 colon): 1.57 µM | TGI (SW-620 colon): 4.21 µM | GI50 (A549 NSCLC): 4.71 µM | TGI (A549 NSCLC): 32.7 µM | GI50 (OVCAR-5 ovarian): 3.57 µM | TGI (OVCAR-5 ovarian): 10.4 µM | GI50 (SNB-75 CNS): 2.52 µM | TGI (SNB-75 CNS): 17.2 µM | GI50 (OVCAR-3 ovarian): 1.91 µM | TGI (OVCAR-3 ovarian): 3.89 µM | GI50 (MOLT-4 leukemia): 1.86 µM | TGI (MOLT-4 leukemia): 5.13 µM | GI50 (HS 578T breast): 2.99 µM | TGI (HS 578T breast): > 100 µM | GI50 (OVCAR-8 ovarian): 3.58 µM | TGI (OVCAR-8 ovarian): > 100 µM | GI50 (HL-60(TB) leukemia): 2.21 µM | TGI (HL-60(TB) leukemia): 5.62 µM | GI50 (TK-10 renal): 2 µM | TGI (TK-10 renal): 4.91 µM | GI50 (SF-295 CNS): 14.1 µM | TGI (SF-295 CNS): 32.4 µM | GI50 (MALME-3M melanoma): 1.89 µM | TGI (MALME-3M melanoma): 4.38 µM | GI50 (COLO 205 colon): 1.85 µM | TGI (COLO 205 colon): 4.36 µM | GI50 (SK-MEL-28 melanoma): 2.27 µM | TGI (SK-MEL-28 melanoma): 4.99 µM | GI50 (KM12 colon): 5.13 µM | TGI (KM12 colon): 18.8 µM | GI50 (U251 CNS): 7.34 µM | TGI (U251 CNS): 21.6 µM | GI50 (HCC-2998 colon): 2.91 µM | TGI (HCC-2998 colon): 8.88 µM | GI50 (RPMI-8226 leukemia): 2.36 µM | TGI (RPMI-8226 leukemia): 6.09 µM | GI50 (RXF 393 renal): 1.44 µM | TGI (RXF 393 renal): 2.86 µM | GI50 (IGROV1 ovarian): 4.44 µM | TGI (IGROV1 ovarian): 29 µM | GI50 (UACC-62 melanoma): 2.73 µM | TGI (UACC-62 melanoma): 10.8 µM | GI50 (BT-549 breast): 2.15 µM | TGI (BT-549 breast): 6.26 µM | GI50 (DU-145 prostate): 1.97 µM | TGI (DU-145 prostate): 3.9 µM | GI50 (M14 melanoma): 1.77 µM | TGI (M14 melanoma): 3.73 µM | GI50 (NCI-H23 lung): 1.96 µM | TGI (NCI-H23 lung): 4.67 µM | GI50 (EKVX NSCLC): 2.7 µM | TGI (EKVX NSCLC): 8.94 µM | GI50 (MDA-MB-231 breast): 2.89 µM | TGI (MDA-MB-231 breast): 9.09 µM | GI50 (NCI-H522 lung): 1.7 µM | TGI (NCI-H522 lung): 4.17 µM | GI50 (SR leukemia): 1.67 µM | TGI (SR leukemia): 5.92 µM | GI50 (UACC-257 melanoma): 2.53 µM | TGI (UACC-257 melanoma): 8.28 µM | GI50 (LOX IMVI melanoma): 1.65 µM | TGI (LOX IMVI melanoma): 3.63 µM | GI50 (HOP-62 NSCLC): 12.2 µM | TGI (HOP-62 NSCLC): 35.8 µM | GI50 (A498 renal): 3.94 µM | TGI (A498 renal): 14.6 µM | GI50 (NCI-H226 lung): 1.8 µM | TGI (NCI-H226 lung): 4.27 µM | GI50 (CCRF-CEM leukemia): 1.47 µM | TGI (CCRF-CEM leukemia): 5.56 µM | GI50 (HCT-15 colon): 1.74 µM | TGI (HCT-15 colon): 4.56 µM | GI50 (UO-31 renal): 1.44 µM | TGI (UO-31 renal): 3.07 µM | GI50 (MCF7 breast): 2.29 µM | TGI (MCF7 breast): 9.59 µM | GI50 (HT29 colon): 2.25 µM | TGI (HT29 colon): 5.37 µM | GI50 (OVCAR-4 ovarian): 3.38 µM | TGI (OVCAR-4 ovarian): 13.6 µM | GI50 (786-0 renal): 1.82 µM | TGI (786-0 renal): 4.21 µM | GI50 (SF-539 CNS): 2.19 µM | TGI (SF-539 CNS): 5.17 µM | GI50 (SK-MEL-2 melanoma): 3.57 µM | TGI (SK-MEL-2 melanoma): 18.6 µM | GI50 (NCI/ADR-RES ovarian): 3.21 µM | TGI (NCI/ADR-RES ovarian): > 100 µM | GI50 (T-47D breast): 2.19 µM | TGI (T-47D breast): 9.86 µM | GI50 (HCT-116 colon): 1.58 µM | TGI (HCT-116 colon): 8.04 µM | GI50 (MDA-MB-435): 3.26 µM | TGI (MDA-MB-435): 11.4 µM | GI50 (SK-MEL-5 melanoma): 4.35 µM | TGI (SK-MEL-5 melanoma): 16.9 µM
